Results taken from ChEMBL document CHEMBL5291721, “A preclinical secondary pharmacology resource illuminates target-adverse drug reaction associations of marketed drugs” (Nat Commun, 2023).

How the values were obtained:
Glucocorticoid receptor = target: T1, Glucocorticoid receptor (Homo sapiens, UniProt P04150)
T1 sequence (P04150 whole entry): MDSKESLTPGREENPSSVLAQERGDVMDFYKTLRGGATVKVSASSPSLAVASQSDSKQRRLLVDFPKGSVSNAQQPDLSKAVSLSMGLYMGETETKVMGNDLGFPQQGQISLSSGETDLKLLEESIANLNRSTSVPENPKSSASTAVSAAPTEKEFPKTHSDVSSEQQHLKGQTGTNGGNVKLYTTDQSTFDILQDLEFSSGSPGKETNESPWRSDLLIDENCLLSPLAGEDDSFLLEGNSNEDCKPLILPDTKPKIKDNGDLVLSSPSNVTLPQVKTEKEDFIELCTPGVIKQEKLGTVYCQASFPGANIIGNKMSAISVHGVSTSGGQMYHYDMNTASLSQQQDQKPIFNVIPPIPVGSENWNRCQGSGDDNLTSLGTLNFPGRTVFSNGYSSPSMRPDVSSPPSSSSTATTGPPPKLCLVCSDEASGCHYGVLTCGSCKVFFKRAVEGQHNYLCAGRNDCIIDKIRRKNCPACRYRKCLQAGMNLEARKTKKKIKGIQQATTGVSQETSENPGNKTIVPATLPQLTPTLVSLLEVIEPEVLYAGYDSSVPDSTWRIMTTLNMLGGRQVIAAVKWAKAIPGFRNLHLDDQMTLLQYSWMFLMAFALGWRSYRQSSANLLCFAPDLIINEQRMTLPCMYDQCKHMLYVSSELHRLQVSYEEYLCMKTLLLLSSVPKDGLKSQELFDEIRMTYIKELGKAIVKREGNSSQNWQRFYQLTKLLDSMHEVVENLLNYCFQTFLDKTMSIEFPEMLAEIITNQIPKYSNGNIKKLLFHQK

B2 bradykinin receptor = target: T2, B2 bradykinin receptor (Homo sapiens, UniProt P30411)
T2 sequence (P30411 whole entry): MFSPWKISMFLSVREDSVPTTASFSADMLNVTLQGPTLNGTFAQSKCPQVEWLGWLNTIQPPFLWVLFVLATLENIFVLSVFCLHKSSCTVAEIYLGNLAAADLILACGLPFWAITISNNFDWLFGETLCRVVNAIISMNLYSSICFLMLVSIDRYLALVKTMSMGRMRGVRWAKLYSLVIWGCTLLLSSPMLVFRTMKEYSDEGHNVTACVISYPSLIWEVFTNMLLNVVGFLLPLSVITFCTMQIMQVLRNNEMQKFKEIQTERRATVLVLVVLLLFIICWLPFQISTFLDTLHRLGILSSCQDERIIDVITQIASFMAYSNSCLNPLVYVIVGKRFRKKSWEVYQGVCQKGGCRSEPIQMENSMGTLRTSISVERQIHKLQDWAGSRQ

[1] = target: T3, Muscarinic acetylcholine receptor M2 (Homo sapiens, UniProt P08172)
T3 sequence (P08172 whole entry): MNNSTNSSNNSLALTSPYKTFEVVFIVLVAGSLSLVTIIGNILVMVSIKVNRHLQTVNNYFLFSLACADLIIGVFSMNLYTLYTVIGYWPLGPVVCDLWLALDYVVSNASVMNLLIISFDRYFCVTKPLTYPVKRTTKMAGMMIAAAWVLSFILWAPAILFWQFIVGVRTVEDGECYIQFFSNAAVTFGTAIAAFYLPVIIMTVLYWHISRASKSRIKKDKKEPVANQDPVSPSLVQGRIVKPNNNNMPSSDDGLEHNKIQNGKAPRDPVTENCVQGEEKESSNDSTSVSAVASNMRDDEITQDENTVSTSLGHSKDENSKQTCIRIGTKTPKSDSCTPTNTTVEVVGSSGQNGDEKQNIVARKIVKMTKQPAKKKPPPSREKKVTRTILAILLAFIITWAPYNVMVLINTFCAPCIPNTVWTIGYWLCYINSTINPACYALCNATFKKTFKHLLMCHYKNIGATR

[2] = target: Vascular endothelial growth factor receptor 2 (Homo sapiens, UniProt P35968); format: functional
Chain of Vascular endothelial growth factor receptor 2 (P35968 whole entry): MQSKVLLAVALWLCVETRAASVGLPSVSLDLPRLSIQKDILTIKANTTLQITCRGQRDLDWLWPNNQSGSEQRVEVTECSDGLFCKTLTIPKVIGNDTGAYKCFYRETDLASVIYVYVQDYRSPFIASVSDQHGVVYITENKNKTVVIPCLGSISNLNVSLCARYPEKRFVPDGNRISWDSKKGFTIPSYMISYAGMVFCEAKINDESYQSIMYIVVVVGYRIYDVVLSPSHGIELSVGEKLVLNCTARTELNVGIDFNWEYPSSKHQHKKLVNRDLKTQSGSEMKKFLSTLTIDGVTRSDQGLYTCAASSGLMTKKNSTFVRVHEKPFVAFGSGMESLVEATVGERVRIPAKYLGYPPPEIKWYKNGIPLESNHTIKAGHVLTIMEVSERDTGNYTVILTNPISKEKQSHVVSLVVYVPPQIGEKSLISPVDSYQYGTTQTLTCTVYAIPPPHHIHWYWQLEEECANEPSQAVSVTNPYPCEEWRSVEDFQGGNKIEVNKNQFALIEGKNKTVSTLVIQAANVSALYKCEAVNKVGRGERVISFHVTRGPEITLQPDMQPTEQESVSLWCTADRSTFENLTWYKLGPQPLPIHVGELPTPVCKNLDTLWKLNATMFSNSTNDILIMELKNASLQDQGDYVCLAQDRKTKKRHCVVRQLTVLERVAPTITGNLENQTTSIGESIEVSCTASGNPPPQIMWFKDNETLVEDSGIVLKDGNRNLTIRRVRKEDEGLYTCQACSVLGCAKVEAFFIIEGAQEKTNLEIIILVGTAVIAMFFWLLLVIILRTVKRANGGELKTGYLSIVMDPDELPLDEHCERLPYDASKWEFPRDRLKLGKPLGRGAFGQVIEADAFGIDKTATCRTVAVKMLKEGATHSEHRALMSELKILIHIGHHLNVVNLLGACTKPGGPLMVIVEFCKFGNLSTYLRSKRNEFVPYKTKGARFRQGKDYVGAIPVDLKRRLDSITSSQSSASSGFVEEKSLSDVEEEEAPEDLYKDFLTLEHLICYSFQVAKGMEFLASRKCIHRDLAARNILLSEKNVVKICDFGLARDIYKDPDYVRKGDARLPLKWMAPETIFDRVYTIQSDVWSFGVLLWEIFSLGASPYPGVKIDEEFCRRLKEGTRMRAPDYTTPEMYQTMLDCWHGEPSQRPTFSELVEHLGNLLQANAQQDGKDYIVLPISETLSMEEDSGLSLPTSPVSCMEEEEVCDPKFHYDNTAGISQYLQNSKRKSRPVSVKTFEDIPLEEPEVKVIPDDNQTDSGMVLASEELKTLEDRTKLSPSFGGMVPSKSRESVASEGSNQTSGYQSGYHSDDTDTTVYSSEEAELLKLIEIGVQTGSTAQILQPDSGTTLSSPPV

[3] = target: Prostaglandin G/H synthase 1 (Homo sapiens, UniProt P23219); format: functional
Chain of Prostaglandin G/H synthase 1 (P23219 whole entry): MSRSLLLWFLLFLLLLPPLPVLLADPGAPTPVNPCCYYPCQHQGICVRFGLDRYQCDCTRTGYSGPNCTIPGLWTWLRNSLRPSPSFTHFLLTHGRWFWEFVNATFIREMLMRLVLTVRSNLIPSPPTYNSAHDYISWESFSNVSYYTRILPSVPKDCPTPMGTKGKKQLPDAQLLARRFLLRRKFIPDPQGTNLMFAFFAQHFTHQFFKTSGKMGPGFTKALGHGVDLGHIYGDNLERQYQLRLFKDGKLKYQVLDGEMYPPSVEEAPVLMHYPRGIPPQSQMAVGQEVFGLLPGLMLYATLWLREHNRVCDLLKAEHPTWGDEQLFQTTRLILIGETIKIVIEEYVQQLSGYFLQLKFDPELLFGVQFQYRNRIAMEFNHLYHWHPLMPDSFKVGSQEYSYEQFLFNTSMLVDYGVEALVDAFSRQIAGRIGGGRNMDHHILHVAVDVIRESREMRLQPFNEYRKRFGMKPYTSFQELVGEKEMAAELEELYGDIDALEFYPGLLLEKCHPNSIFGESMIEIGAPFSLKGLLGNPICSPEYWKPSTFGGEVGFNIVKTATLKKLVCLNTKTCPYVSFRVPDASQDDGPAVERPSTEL

[4] = target: Beta-2 adrenergic receptor (Homo sapiens, UniProt P07550)
Chain of Beta-2 adrenergic receptor (P07550 whole entry): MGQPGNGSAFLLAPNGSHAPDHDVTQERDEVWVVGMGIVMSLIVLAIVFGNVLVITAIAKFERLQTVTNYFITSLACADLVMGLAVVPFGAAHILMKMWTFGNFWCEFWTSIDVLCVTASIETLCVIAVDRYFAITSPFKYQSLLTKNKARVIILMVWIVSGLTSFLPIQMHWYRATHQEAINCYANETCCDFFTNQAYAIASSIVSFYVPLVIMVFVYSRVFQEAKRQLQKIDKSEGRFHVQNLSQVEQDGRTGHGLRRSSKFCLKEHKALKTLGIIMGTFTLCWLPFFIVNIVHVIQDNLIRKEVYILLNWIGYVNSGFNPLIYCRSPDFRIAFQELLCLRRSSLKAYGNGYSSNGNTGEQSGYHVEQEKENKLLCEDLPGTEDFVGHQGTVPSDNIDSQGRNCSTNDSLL

[5] = target: Gamma-aminobutyric acid receptor subunit alpha-1 (Rattus norvegicus, UniProt P62813)
Chain of Gamma-aminobutyric acid receptor subunit alpha-1 (P62813 whole entry): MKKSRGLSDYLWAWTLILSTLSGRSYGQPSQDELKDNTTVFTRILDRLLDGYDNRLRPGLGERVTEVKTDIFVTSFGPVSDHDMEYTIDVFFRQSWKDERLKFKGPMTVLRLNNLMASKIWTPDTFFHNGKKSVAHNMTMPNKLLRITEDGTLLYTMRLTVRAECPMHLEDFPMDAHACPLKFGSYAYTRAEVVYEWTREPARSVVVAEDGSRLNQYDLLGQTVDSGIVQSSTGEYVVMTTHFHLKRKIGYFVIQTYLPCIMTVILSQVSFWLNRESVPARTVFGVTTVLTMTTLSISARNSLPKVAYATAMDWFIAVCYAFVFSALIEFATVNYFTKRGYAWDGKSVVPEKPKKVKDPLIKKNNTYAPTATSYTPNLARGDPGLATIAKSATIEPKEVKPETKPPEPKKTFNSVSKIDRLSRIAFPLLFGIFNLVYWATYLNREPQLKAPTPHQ

Cannabinoid receptor 1 = Cannabinoid receptor 1 (Homo sapiens, UniProt P21554); format: functional, cell-based
Chain of Cannabinoid receptor 1 (P21554 whole entry): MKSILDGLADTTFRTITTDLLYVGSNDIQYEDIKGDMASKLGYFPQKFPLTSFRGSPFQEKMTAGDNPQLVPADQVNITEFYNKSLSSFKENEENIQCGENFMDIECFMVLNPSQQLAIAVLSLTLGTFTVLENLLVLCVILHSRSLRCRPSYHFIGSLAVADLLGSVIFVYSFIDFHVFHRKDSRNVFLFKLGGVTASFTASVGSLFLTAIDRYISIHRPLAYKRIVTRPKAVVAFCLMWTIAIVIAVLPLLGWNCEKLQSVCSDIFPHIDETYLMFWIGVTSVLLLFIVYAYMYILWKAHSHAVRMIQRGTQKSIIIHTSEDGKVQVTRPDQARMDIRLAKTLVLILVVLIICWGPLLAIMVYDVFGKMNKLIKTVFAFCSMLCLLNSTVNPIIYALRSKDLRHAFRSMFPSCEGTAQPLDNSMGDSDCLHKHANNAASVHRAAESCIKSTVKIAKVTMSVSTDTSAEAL

[6] = target: T4, Alpha-1A adrenergic receptor (Homo sapiens, UniProt P35348); format: functional, cell-based
T4 sequence (P35348 whole entry): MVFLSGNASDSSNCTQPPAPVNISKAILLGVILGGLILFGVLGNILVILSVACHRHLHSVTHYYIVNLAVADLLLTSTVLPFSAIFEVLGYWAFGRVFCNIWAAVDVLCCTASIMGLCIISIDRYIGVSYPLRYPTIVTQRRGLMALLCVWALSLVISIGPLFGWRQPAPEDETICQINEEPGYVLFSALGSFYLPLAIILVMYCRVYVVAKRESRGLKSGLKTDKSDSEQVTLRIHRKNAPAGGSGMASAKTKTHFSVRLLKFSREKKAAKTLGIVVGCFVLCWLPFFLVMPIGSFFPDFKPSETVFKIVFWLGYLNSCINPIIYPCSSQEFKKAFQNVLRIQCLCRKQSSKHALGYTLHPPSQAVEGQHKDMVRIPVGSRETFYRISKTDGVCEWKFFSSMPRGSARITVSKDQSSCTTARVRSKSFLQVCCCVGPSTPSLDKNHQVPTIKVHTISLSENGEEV

[7] = target: T4, Alpha-1A adrenergic receptor; format: functional, cell-based; remark: listed apart in the source
[8] = target: 5-hydroxytryptamine receptor 2A (Homo sapiens, UniProt P28223); format: functional, cell-based
Chain of 5-hydroxytryptamine receptor 2A (P28223 whole entry): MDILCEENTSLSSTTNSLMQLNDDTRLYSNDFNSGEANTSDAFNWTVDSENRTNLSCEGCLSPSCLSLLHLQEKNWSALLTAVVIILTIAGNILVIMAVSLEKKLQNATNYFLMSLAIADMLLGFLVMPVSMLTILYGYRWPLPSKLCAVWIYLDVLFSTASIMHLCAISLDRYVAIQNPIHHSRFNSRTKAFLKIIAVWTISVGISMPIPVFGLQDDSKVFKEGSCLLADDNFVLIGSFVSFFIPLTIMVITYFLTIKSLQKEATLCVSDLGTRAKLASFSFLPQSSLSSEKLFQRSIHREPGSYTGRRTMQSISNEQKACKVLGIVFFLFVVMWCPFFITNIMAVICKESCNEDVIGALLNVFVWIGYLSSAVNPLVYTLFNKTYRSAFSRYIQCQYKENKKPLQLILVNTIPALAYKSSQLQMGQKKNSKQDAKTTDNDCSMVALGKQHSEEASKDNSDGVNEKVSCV
Note: assay procedure not described here.

Row | Structure (SMILES) | AC50 (Glucocorticoid receptor) [µM] | AC50 (B2 bradykinin receptor) [µM] | AC50 [1] [µM] | AC50 [2] [µM] | AC50 [3] [µM] | AC50 [4] [µM] | AC50 [5] [µM] | AC50 (Cannabinoid receptor 1) [µM] | AC50 [6] [µM] | AC50 [7] [µM] | AC50 [8] [µM]
1 | Cc1cccc(Nc2ccccc2C(=O)O)c1C [MEFENAMIC ACID] | > 10 | > 10 | > 30 | > 30 | 0.0343 | > 10 | > 10 |  |  |  | 
2 | CS(=O)(=O)c1ccc(C2=C(c3ccccc3)C(=O)OC2)cc1 [ROFECOXIB] | > 30 | > 30 | > 30 | > 30 |  | > 10 | > 10 | > 30 | > 30 | > 30 | 
3 | Cc1cn([C@H]2C[C@H](N=[N+]=[N-])[C@@H](CO)O2)c(=O)[nH]c1=O [ZIDOVUDINE] | > 30 | > 30 | > 30 | > 30 | > 30 | > 10 | > 10 | > 30 | > 30 | > 30 | 
4 | CC[C@H]1[C@@H](O)[C@@H]2[C@H](CC[C@]3(C)[C@@H]([C@H](C)CCC(=O)O)CC[C@@H]23)[C@@]2(C)CC[C@@H](O)C[C@@H]12 [OBETICHOLIC ACID] | > 30 | > 30 | > 30 | > 30 | > 30 | > 30 | > 30 | > 30 | 6.3 | > 30 | > 30
5 | CC(C)C[C@H]1C(=O)N2CCC[C@H]2[C@]2(O)O[C@](NC(=O)[C@@H]3C=C4c5cccc6[nH]c(Br)c(c56)C[C@H]4N(C)C3)(C(C)C)C(=O)N12 [BROMOCRIPTINE] | > 30 | > 30 | 29.1 | > 30 | 2.49 | 8.4 | > 10 | > 30 |  | 0.844 | 
6 | C=CCc1ccccc1OCC(O)CNC(C)C (stereo not drawn) [ALPRENOLOL] |  | 14 | > 0.3 | > 0.3 | > 0.3 |  | > 30 | > 30 | 7.53 | > 30 | > 30
7 | O=C(OCC(O)CO)c1ccccc1Nc1ccnc2cc(Cl)ccc12 (stereo not drawn) [GLAFENINE] |  |  | 4.3 | 6.96 | 4.63 |  |  | > 30 | > 30 | > 30 | > 30
8 | Cc1cn([C@H]2C=C[C@@H](CO)O2)c(=O)[nH]c1=O [STAVUDINE] |  | > 30 | > 30 | > 30 | > 30 | > 10 | > 10 | > 30 | > 30 | > 30 | 
9 | NCC(CC(=O)O)c1ccc(Cl)cc1 (stereo not drawn) [BACLOFEN] | > 30 | > 30 | > 30 | > 30 | > 30 | > 10 | > 10 | > 30 | > 30 | > 30 | 
10 | CC(=O)Nc1ccc(O)cc1 [ACETAMINOPHEN] |  |  | > 30 | > 30 |  |  |  | > 30 | > 30 | > 30 | 
11 | O=C(CCNNC(=O)c1ccncc1)NCc1ccccc1 [NIALAMIDE] |  |  | > 30 | > 30 | 1.65 |  |  |  |  |  | 
12 | O=C(O)c1cc(O)ccc1O [GENTISIC ACID] |  |  | > 30 | > 30 | > 30 |  |  |  |  |  | 
13 | C[C@]12CC[C@@H]3c4ccc(O)cc4CC[C@H]3[C@@H]1C[C@@H](O)[C@@H]2O [ESTRIOL] |  |  | > 30 | > 30 | > 30 |  |  |  |  |  | 
14 | Oc1c(Cl)cc(Cl)c2cccnc12 [CHLOROXINE] |  |  | > 30 | > 30 | > 30 |  |  |  |  |  | 
15 | CC[N+]1(C)[C@@H]2CC(OC(=O)[C@H](CO)c3ccccc3)C[C@H]1[C@@H]1O[C@@H]12 (stereo partly drawn) [OXITROPIUM] |  |  | 0.003 | > 30 | > 30 |  |  |  |  |  | 
16 | CO[C@H]1C[C@@H]2CC[C@@H](C)[C@@](O)(O2)C(=O)C(=O)N2CCCC[C@H]2C(=O)O[C@H]([C@H](C)C[C@@H]2CC[C@@H](O)[C@H](OC)C2)CC(=O)[C@H](C)/C=C(\C)[C@@H](O)[C@@H](OC)C(=O)[C@H](C)C[C@H](C)/C=C/C=C/C=C/1C [SIROLIMUS] |  | > 30 | > 30 | > 30 | 26.6 | > 10 | > 10 | > 30 | > 30 | > 30 | 
17 | C=C[C@H]1C[N@@]2CC[C@H]1C[C@H]2[C@H](O)c1ccnc2ccc(OC)cc12 [QUININE] |  |  | > 30 | > 30 | > 30 |  |  |  |  |  | 
